Experimental data from ChEMBL document CHEMBL1138857, “Quinol-4-ones as steroid A-ring mimetics in nonsteroidal dissociated glucocorticoid agonists” (J Med Chem, 2006).

Assays:
HFF [1] = assay: Inhibition of IL1-stimulated IL6 production in HFF cells; assay type: functional, cell-based; details: Homo sapiens
Glucocorticoid receptor = biological target: T1, Glucocorticoid receptor (Homo sapiens, UniProt P04150)
T1 sequence (P04150 whole entry): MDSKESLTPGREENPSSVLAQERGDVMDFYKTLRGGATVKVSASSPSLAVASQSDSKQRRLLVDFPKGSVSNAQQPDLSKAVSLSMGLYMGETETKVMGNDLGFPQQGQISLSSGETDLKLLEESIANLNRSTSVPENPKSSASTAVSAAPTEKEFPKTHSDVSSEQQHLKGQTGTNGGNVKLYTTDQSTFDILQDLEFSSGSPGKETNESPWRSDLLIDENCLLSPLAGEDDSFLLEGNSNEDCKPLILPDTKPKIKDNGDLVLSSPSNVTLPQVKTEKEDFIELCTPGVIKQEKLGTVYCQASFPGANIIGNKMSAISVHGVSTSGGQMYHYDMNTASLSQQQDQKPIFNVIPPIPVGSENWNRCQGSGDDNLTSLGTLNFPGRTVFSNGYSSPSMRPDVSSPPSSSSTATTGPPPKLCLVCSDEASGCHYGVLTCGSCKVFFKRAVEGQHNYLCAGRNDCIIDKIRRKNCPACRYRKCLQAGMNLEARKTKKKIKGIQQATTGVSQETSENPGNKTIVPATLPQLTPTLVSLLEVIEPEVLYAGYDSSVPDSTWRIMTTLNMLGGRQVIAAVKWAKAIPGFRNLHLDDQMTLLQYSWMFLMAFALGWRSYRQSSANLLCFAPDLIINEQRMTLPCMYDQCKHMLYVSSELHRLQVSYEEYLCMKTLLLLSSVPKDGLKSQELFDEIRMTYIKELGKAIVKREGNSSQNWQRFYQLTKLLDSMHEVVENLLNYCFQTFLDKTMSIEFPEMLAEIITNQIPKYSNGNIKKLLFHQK

HFF [2] = assay: Inhibition of IL1-stimulated IL6 production in HFF cells relative to Dexamethasone; assay type: functional, Homo sapiens
HFF [3] = assay: Induction of aromatase activity in HFF cells assessed as production of beta estradiol by aromatase assay relative to Dexamethasone; assay type: functional, Homo sapiens
Mus musculus [4] = assay: Inhibition of LPS-stimulated TNFalpha production in BALB/c mouse at 10 mg/kg, po; assay type: functional
[5] = biological target: T2, Mineralocorticoid receptor (Homo sapiens, UniProt P08235); assay: Inhibition of tetramethylrhodamine labeled dexamethasone binding to MR by FP assay
T2 sequence (P08235 whole entry): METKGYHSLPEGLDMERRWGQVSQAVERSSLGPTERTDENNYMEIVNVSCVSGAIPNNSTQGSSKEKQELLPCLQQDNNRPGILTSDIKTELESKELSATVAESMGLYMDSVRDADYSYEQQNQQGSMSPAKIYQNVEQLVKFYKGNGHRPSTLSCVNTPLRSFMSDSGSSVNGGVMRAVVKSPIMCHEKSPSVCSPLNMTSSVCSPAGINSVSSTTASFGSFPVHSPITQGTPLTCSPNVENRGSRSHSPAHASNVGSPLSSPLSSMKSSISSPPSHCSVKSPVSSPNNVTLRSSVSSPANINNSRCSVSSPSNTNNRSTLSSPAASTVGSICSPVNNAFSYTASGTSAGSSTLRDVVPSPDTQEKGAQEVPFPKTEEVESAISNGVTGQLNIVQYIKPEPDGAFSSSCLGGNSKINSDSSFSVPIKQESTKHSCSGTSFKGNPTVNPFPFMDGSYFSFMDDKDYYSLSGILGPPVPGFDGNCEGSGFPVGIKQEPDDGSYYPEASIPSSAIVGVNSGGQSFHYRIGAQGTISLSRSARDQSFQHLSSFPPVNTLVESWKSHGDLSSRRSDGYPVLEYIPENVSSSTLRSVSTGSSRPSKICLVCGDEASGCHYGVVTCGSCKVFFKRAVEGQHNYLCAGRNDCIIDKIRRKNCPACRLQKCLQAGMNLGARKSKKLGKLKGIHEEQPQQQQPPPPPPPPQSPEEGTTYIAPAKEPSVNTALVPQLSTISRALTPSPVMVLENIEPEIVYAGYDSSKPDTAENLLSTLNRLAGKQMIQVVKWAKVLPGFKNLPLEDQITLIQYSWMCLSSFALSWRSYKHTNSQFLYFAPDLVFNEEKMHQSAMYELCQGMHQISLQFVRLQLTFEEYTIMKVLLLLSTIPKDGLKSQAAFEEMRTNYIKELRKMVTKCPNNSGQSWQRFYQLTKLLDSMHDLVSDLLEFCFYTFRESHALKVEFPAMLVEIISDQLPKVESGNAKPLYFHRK

Progesterone receptor = biological target: T3, Progesterone receptor (Homo sapiens, UniProt P06401); assay: Inhibition of tetramethylrhodamine labeled RU486 binding to PR by FP assay
T3 sequence (P06401 whole entry): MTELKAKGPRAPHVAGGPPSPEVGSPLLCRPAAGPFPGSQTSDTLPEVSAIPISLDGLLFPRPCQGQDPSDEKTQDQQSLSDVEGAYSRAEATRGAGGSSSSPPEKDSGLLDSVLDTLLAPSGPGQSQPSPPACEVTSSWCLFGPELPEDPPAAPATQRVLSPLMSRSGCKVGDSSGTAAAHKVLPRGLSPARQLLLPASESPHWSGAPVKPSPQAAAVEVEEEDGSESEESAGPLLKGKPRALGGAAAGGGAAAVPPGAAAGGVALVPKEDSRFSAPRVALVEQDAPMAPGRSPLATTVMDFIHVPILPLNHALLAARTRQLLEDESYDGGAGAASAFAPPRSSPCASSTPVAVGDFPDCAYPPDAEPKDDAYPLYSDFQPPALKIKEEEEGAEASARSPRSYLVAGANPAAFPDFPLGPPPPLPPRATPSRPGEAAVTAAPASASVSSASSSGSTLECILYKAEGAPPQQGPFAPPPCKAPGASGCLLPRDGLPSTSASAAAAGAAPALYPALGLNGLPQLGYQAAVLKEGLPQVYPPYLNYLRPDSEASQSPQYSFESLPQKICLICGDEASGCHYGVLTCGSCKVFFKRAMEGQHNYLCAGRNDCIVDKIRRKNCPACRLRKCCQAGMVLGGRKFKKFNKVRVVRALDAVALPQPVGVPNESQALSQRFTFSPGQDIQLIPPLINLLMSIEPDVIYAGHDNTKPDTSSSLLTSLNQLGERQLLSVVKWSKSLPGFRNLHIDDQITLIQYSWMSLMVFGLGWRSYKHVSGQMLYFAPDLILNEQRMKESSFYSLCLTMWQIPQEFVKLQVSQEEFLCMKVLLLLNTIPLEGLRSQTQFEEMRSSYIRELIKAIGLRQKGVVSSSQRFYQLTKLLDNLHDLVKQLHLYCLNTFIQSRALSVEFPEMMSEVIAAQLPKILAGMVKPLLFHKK

HeLa [6] = assay: Activation of MMTV in HeLa cells measured by luciferase activity; assay type: functional, cell-based; details: Homo sapiens
HFF [7] = assay: Induction of aromatase activity in HFF cells assessed as production of beta estradiol by aromatase assay; assay type: functional, cell-based; details: Homo sapiens
HeLa [8] = assay: Activation of MMTV in HeLa cells measured by luciferase activity relative to Dexamethasone; assay type: functional, Homo sapiens
Homo sapiens = species on record: Homo sapiens; assay: Ratio of IC50 for GR to PR
Mus musculus [9] = assay: Inhibition of LPS-stimulated TNFalpha production in BALB/c mouse at 3 mg/kg, po; details: read-out: Inhibition

Structure (SMILES) | IC50 (HFF [1]) | IC50 (Glucocorticoid receptor) | Efficacy (HFF [2]) | Efficacy (HFF [3]) | inhibition in vivo at 10 mg/kg (Mus musculus [4]) | IC50 [5] | IC50 (Progesterone receptor) | EC50 (HeLa [6]) | EC50 (HFF [7]) | Efficacy (HeLa [8]) | Ratio IC50 (Homo sapiens) | inhibition in vivo at 3 mg/kg (Mus musculus [9])
Cc1cn(CC(O)(CC(C)(C)c2cccc3c2OCC3)C(F)(F)F)cc(C)c1=O (stereo not given) | 39 nM | 34 nM | 77% | 26% | 49% | – | – | – | – | – | – | –
CC(C)(CC(O)(Cn1ccc(=O)c2ccccc21)C(F)(F)F)c1cc(F)ccc1O (stereo not given) | 6 nM | 5 nM | 92% | 74% | 55% | 580 nM | 960 nM | 37 nM | 14 nM | 20% | – | –
CC(C)(CC(O)(Cn1ccc(=O)c2ccccc21)C(F)(F)F)c1cccc2c1OCC2 (stereo not given) | 11 nM | 4 nM | 86% | 60% | 49% | 98 nM | 48 nM | – | – | – | – | –
COc1ccc(F)cc1C(C)(C)CC(O)(CN1C[C@@H](C)O[C@@H](C)C1)C(F)(F)F (stereo not given in full) | 270 nM | 38 nM | 72% | – | – | 450 nM | > 2000 nM | – | – | – | > 75 | –
COc1ccc(F)cc1C(C)(C)CC(O)(CN1CCOc2ccccc21)C(F)(F)F (stereo not given) | 600 nM | 15 nM | 25% | – | – | 310 nM | 640 nM | – | – | – | < 50 | –
Cc1ccc(F)cc1C(C)(C)CC(O)(Cn1ccc(=O)c2cnccc21)C(F)(F)F (stereo not given) | 47 nM | 48 nM | 59% | 14% | 58% | – | – | – | > 2000 nM | – | – | –
C[C@]12C=CC(=O)C=C1CC[C@@H]1[C@@H]2[C@@H](O)C[C@@]2(C)[C@H]1CC[C@]2(O)C(=O)CO [PREDNISOLONE] | 6.6 nM | – | 96% | 92% | – | – | – | 16 nM | 19 nM | 91% | – | 84%
Cc1ccc(F)cc1C(C)(C)CC(O)(Cn1cc(C)c(=O)c(C)c1)C(F)(F)F (stereo not given) | 70 nM | 125 nM | 71% | 20% | 48% | – | – | – | > 2000 nM | – | – | –
COc1ccc(F)cc1C(C)(C)CC(O)(CN1CCC(=O)c2ccccc21)C(F)(F)F (stereo not given) | 110 nM | 4 nM | 72% | – | – | 130 nM | 90 nM | – | – | – | < 50 | –
Cc1ccc(F)cc1C(C)(C)CC(O)(Cn1ccc(=O)c2ccccc21)C(F)(F)F (stereo not given) | 34 nM | 10 nM | 66% | 22% | 50% | 120 nM | 240 nM | > 2000 nM | – | 2% | – | –
COc1ccc(F)cc1C(C)(C)CC(O)(Cn1ccc(=O)c2ccccc21)C(F)(F)F (stereo not given) | 27 nM | 10 nM | 82% | 67% | – | 120 nM | 475 nM | > 2000 nM | 220 nM | 10% | < 50 | –
COc1ccc(F)cc1C(C)(C)CC(O)(CN1C[C@@H](C)C(=O)[C@@H](C)C1)C(F)(F)F (stereo not given in full) | 75 nM | 10 nM | 89% | 93% | – | 430 nM | > 2000 nM | – | 240 nM | – | > 75 | –
Cc1ccccc1C(C)(C)CC(O)(Cn1ccc(=O)c2ccccc21)C(F)(F)F (stereo not given) | 61 nM | 22 nM | 63% | 29% | 36% | 150 nM | 240 nM | > 2000 nM | > 2000 nM | 1% | – | –
COc1ccc(C)c(C(C)(C)CC(O)(Cn2ccc(=O)c3ccccc32)C(F)(F)F)c1 (stereo not given) | 17 nM | 11 nM | 86% | 65% | – | 91 nM | 525 nM | > 2000 nM | 95 nM | 6% | – | –
